Measurements as given in patent US20050059694A1, “New use of 11.28-dioxa-4-azatricyclo [22.3.1.04,9] octacos-18-ene derivatives and pharmaceutical compositions containing them” (Fujisawa Pharmaceutical Co., Ltd., priority 1987, published 2005).
≈ marks a conversion by molar mass, not a printed value.

Assays:
[1] = test system: human polymorphonuclear neutrophil leukocytes; assay: Inhibition of FMLP-stimulated oxidative burst (chemiluminescence) in PMNL; format: cell-based; conditions: minimal inhibiting concentration with significant inhibition of all 3 chemiluminescence parameters; FMLP stimulus
Procedure: (§1) 3. Inhibition of the Oxidative Burst in Human Polymorphonuclear neutrophil leukocytes (inhibition of FMLP—or, respectively, A 23187-stimulated chemiluminescence):
(§2) Polymorphonuclear leukocytes (PMNL) are prepared from human peripheral blood (M. Schaude et al., Mycoses 31 (5) [1988]259-267). Stock solutions of the test substances (500 mg/l) are freshly prepared on the day of experiment in 5% DMSO/RPMI 1640. For the determination of the chemiluminescence (CL) with Biolumat LB 9505 the luminescence indicator DMNH is used. […] The CL-reaction is started by addition of either 100 μl of the peptide FMLP (4×10^−6 M) or of the calcium ionophor A 23187 (4×10^−6 M). […] 3 parameters are used for evaluation of the results: peak intensity of the radiated light, time span up to the peak and surface area under the reaction curve. As minimal inhibiting concentration the concentration of test substance is chosen where a significant inhibition of all 3 parameters can be observed (Table 4).

[2] = test system: oxazolone allergy (allergic contact dermatitis, DTH-reaction); assay: Oxazolone allergy (mouse), topical administration; format: in vivo; conditions: ethanol as solvent, pinna weight difference 24 hours after second exposure
Procedure: 1. Determination of the activity after topical administration in models of allergic or allergen-induced contact dermatitis (DTH-reaction) 1.1. Oxazolone Allergy (Mouse): 10 μl of a 2% oxazolone solution are applied onto the abdominal skin of mice for sensitization, 8 days later a second exposure with 10 μl of a 2% oxazolone solution is performed by application on the peripheral internal surface of the pinna. 20 minutes and 2 hours after the second exposure has released the challenge reaction, the test solution is applied at the site of the second exposure. Evaluation of the inhibition of inflammation with the test substance is effected by reference to an untreated group treated with the solvent used for dissolving the test substance, alone. 24 hours after the second exposure the animals are killed and the separated pinnae are weighted. The difference in weight between the two pinnae is used for evaluation; the individual differences in the test group and in the solvent control group are statistically compared (by simple variance analysis with subsequent Dunnet test by normal distribution test if normally distributed, otherwise by […] and Wilcoxon-Mann-Whitney's U-test). The activity of the test substance is indicated in %, based on mean values. […] Ethanol is used as solvent.

[3] = test system: TPA-induced PGE2 release from macrophages; assay: Inhibition of macrophage activation (TPA-induced PGE2 release); format: cell-based, NMRI mice; conditions: PGE2 release from TPA-stimulated mouse peritoneal macrophages
Procedure: 4. Inhibition of Macrophage Activation (Inhibition of TPA-induced PGE2 release)
Peritoneal exudate cells of NMRI mice pretreated 3 days earlier with 1.5 ml thioglycolate i.p. are harvested by peritoneal lavage, washed with deficient PBS and resuspended in DMEM medium supplemented with 10% FCS. 1×10^6 cells are transferred to each well of a 24-wells plate, and the cells are left to adhere 4 hours at 37° and 5% CO2. The cells are then washed twice with deficient PBS. The resultant, more than 95% pure macrophage population is stimulated with TPA ([…]) in DMEM-medium devoid of FCS. The conditioned media are centrifuged and the PGE2-contents determined using a ^125I-radioimmunotest. PGE2-release inhibition with the test substances is measured as percentage inhibition compared to the controls.

[4] = test system: dermatitis induced by croton oil; assay: Dermatitis induced by croton oil (mouse), topical administration; format: in vivo, NMRI mice; conditions: dissolved in irritant solution, pinna weight difference 6 hours after irritant
Procedure: 2. Determination of the Activity after Topical Administration In the Irritant-Induced Dermatitis Model (Mouse) 2.2. Dermatitis Induced by Croton Oil Croton oil is often used, as TPA, in order to induce an irritant-induced dermatitis on which substances can be tested for their anti-inflammatory activity (Maibach, Love, Ed., Models in Dermatology, Vol. 3[1987]p. 86-92, Karger-Basel). NMRI-mice are given 15 μl of 0.23% croton oil (in a mixture of dimethylacetamide, acetone and ethanol 2/4/4) on the inner side of the right pinna. Treatment is effected simultaneously with the irritation, the test substance being dissolved in the solution of irritant applied at the auricular test site. Evaluation of the test group is performed by comparison of the inflammation with a group receiving only the irritant solution on the pinna. The animals are killed 6 hours after application of the irritant, the pinnae separated and weighted. The difference between the weights of the two individual pinnae is used for evaluation, by statistical comparison of the single differences in the test group with the single differences in the control group (as under 1.1.). The activity of the test substances is indicated in % based on average values.

DNFB contact allergy = assay: DNFB allergy (swine), topical administration; format: in vivo; conditions: 5% preparation (solution in 15% dimethylformamide, 42.5% ethanol, 42.5% propylenglycol), applied topically 4 times
Procedure: On the 1st and 3rd day 100 μl each of a 10% DNFB preparation is applied onto the inner surface of the right and, respectively, left thigh. On the 14th day each swine is marked on the right and the left side of the back with circular markings of 5 cm in diameter (8 markings per animal) and 150 μl each of a 0.5% DNFB preparation is applied thereon. The substances are tested either in the form of galenical compositions or of a solution. The carriers are used in each case as placebo controls.
The test products are carefully applied 4 times (first 30 minutes, then 6, 24 and 32 hours after release of the challenge reaction). Prior to each application the test areas are evaluated with respect to reddenning, swelling and consistance. The coloration of the test areas is then determined quantitatively with a reflectometer, repeatedly. From the data on brightness (L*) and saturation (C*) the erythema index is computed according to the following formula: 100−L*×C*. The mean erythema index is a reflection of the activity according to the following formula: [formula]

human keratinocytes = assay: Inhibition of proliferation of human keratinocytes; format: cell-based
Procedure: 5. Inhibition of proliferation of human keratinocytes
Cultures of human keratinocytes are obtained by trypsination of human foreskin from newborns or obtained as to EpiPack from Clonetics Corp. (San Diego). The keratinocyte cultures are grown in culture flasks in a supplemented keratinocyte medium (KGM). The passages 3 to 5 of 80-90% confluent keratinocytes are resuspended in KGM at a concentration of 1×10^5 cells/ml, and either 0.1 ml each of this cell suspension is added into a 96-vells microtiter plate or 1 ml each of this cell suspension are added into a 24-wells plate in the presence of test substance. The cells are grown for 48 hours at 37° and 5% CO2. ^3H-thymidine is incorporated during the last 16 hours (microtiter plate, 1 μCi/well), the cells are checked for their morphology, washed thrice with ice-cold, deficient PBS and twice with trichloroacetic acid, solubilized in 100 μl 0.1 N NaOH containing 1% SDS, and the radioactivity is measured. Alternatively, cells from the 24-well plate are trypsinized (trypsin/EDTA), checked for viability by trypan blue exclusion, and triple aliquots are counted in a cell counter.

TPA-induced dermatitis = TPA-induced dermatitis (mouse), topical administration; format: in vivo, NMRI mice; conditions: dimethylacetamide/acetone/ethanol (2/4/4), pinna weight difference 6 hours after irritant
Procedure: 2. Determination of the Activity after Topical Administration In the Irritant-Induced Dermatitis Model (Mouse) 2.1 TPA-induced Dermatitis: Skin irritation with TPA in test animals is a method for testing substances as to their antiinflammatory activity after local application (Maibach, Lowe, Ed. Models in Dermatology, Vol. 3 [1987] p. 86-92, Karger-Basel). NMRI mice are given 10 μl of a TPA solution on the inner and outer side of the right pinna (2×10 μl/mouse=2×0.5 μg TPA/mouse). The left pinnae remain untreated. Treatment is effected 30 min. after irritation, by application of 2×10 μl of test solution onto the irritated ear surfaces, as described above. The evaluation of the test group is performed by comparison with a group where the right pinna has been treated with only the irritating solution and with the solvent used for the test substance. 6 hours after application of the irritant the animals are killed, the pinnae separated and weighted. The difference in weight of the two pinnae is used for the evaluation, whereby the individual differences of the test groups are statistically compared with the individual differences of the control groups (as under 1.1.). The activity of the test substances is indicated in % on the basis of the average values. The solvent used is a mixture of dimethylacetamide, acetone and ethanol (2/4/4): […]

[5] = test system: human polymorphonuclear neutrophil leukocytes; assay: Inhibition of A 23187-stimulated oxidative burst (chemiluminescence) in PMNL; format: cell-based; conditions: minimal inhibiting concentration with significant inhibition of all 3 chemiluminescence parameters; calcium ionophor A 23187 stimulus
Procedure: as §1, §2

Row | Compound | MIC (μM) (FMLP) [1] [µM] | MIC (μM) (A 23187) [5] [µM] | % inhibition ([2]; 0.005 % concentration) [%] | inhibition at 1 µM [3] [%] | % inhibition ([4]; 0.4 % concentration) [%] | % inhibition ([4]; 1.2 % concentration) [%] | % inhibition ([4]; 3.6 % concentration) [%] | % inhibition (TPA-induced dermatitis; 1.2 % concentration) [%] | % inhibition (TPA-induced dermatitis; 3.6 % concentration) [%] | also measured
1 | C=CC[C@@H]1/C=C(\C)C[C@H](C)C[C@H](OC)[C@H]2O[C@@](O)(C(=O)C(=O)N3CCCC[C@H]3C(=O)O[C@H](/C(C)=C/[C@@H]3CC[C@@H](O)[C@H](OC)C3)[C@H](C)[C@@H](O)CC1=O)[C@H](C)C[C@@H]2OC [Compound A, 17-Allyl-1,14-dihydroxy-12-[2-(4-hydroxy-3-methoxycyclo-hexyl)-1-methylvinyl]-23,25-dimethoxy-13,19,21,27-tetramethyl-11,28-dioxa-4-azatricyclo[22.3.1.0^4,9]octacos-18-ene-2,3,10,16-tetraone] | 0.005 (≈ 0.00402 µg/mL) | 0.05 (≈ 0.0402 µg/mL) | 52 | 30 | 52 | 64 | 85 | 52 | 56 | % inhibition ([2]; 0.0005 % concentration): 35%; % inhibition ([2]; 0.002 % concentration): 38%; % inhibition ([2]; 0.01 % concentration): 65%; % inhibition ([2]; 0.13 % concentration): 65%; clinical evaluation of the test sites / activity (DNFB contact allergy): the treated areas can hardly be distinguished from the adjacent normal skin; inhibition at 0.5 µM (human keratinocytes; Homo sapiens, Keratinocyte, 0.5 μM, 48 hours, read-out: % inhibition compared to control): 57%; inhibition at 1 µM (human keratinocytes; Homo sapiens, Keratinocyte, 1 μM, 48 hours, read-out: % inhibition compared to control): 74%; inhibition at 5 µM (human keratinocytes; Homo sapiens, Keratinocyte, 5 μM, 48 hours, read-out: % inhibition compared to control): 94%; reduction in proliferation (human keratinocytes; concentration range from 0.5 to 5 μM): dose-dependent reduction in proliferation
2 | C=CCC1C=C(C)CC(C)CC(OC)C2OC(O)(C(=O)C(=O)N3CCCCC3C(=O)OC(C(C)=CC3CCC(OC(C)=O)C(OC)C3)C(C)C(OC(C)=O)CC1=O)C(C)CC2OC (stereo not shown) [Compound D, 14-acetoxy-12-[2-(4-acetoxy-3-methoxycyclohexyl)-1-methylvinyl]-17-allyl-1-hydroxy-23,25-dimethoxy-13,19,21,27-tetramethyl-11,28-dioxa-4-azatricyclo[22.3.1.0^4,9]octacos-18-ene-2,3,10,16-tetraone] | <0.5 | 0.5 (≈ 0.444 µg/mL) | – | – | – | – | – | – | – | –
3 | C=CCC1C=C(C)CC(C)CC(OC)C2OC(O)(C(=O)C(=O)N3CCCCC3C(=O)OC(C(C)=CC3CCC(OC(C)=O)C(OC)C3)C(C)C(O)CC1=O)C(C)CC2OC (stereo not shown) [Compound E, 12-[2-(4-acetoxy-3-methoxycyclohexyl)-1-methylvinyl]-17-allyl-1,14-dihydroxy-23,25-dimethoxy-13,19,21,27-tetramethyl-11,28-dioxa-4-azatricyclo[22.3.1.0^4,9]octacos-18-ene-2,3,10,16-tetraone] | <0.5 | 0.05 (≈ 0.0423 µg/mL) | – | – | – | – | – | – | – | –
4 | COc1ccc2c(c1)c(CC(=O)O)c(C)n2C(=O)c1ccc(Cl)cc1 [Indomethacin, reference compound] | – | – | – | – | 11 | 63 | 96 | 26 | 31 | –

Now from value to molecule, other results behind:

Row | MIC (μM) (FMLP) [1] [µM] | MIC (μM) (A 23187) [5] [µM] | Compound | % inhibition ([2]; 0.005 % concentration) [%] | inhibition at 1 µM [3] [%] | % inhibition ([4]; 0.4 % concentration) [%] | % inhibition ([4]; 1.2 % concentration) [%] | % inhibition ([4]; 3.6 % concentration) [%] | % inhibition (TPA-induced dermatitis; 1.2 % concentration) [%] | % inhibition (TPA-induced dermatitis; 3.6 % concentration) [%] | also measured
5 | 0.01 (≈ 0.00806 µg/mL) | 0.01 (≈ 0.00806 µg/mL) | CCCC1C=C(C)CC(C)CC(OC)C2OC(O)(C(=O)C(=O)N3CCCCC3C(=O)OC(C(C)=CC3CCC(O)C(OC)C3)C(C)C(O)CC1=O)C(C)CC2OC (stereo not shown) [Compound B, 1,14-dihydroxy-12-[2-(4-hydroxy-3-methoxycyclohexyl)-1-methylvinyl]-23,25-dimethoxy-13,19,21,27-tetramethyl-17-propyl-11,28-dioxa-4-azatricyclo[22.3.1.0^4,9]octacos-18-ene-2,3,10,16-tetraone] | 60 | 60 | – | – | – | – | – | –
6 | 0.5 (≈ 0.393 µg/mL) | 5 (≈ 3.93 µg/mL) | C=CCC1C=C(C)CC(C)CC(OC)C2OC(O)(C(=O)C(=O)N3CCCCC3C(=O)OC(C(C)=CC3CCC(O)C(OC)C3)C(C)C=CC1=O)C(C)CC2OC (stereo not shown) [Compound C, 17-allyl-1-hydroxy-12-[2-(4-hydroxy-3-methoxycyclohexyl)-1-methylvinyl]-23,25-dimethoxy-13,19,21,27-tetramethyl-11,28-dioxa-4-azatricyclo[22.3.1.0^4,9]octacosa-14,18-diene-2,3,10,16-tetraone] | – | 60 | – | – | – | – | – | –
